Reference: patent US7709645B2, “Pyrrolo-pyridine kinase modulators” (SGX Pharmaceuticals, Inc., priority 2004, dated 2010)

Target: T1, MET kinase (Homo sapiens, UniProt P08581)
T1 construct: Sf9 insect cell culture expressing the kinase domain of human Met; 6x Histidine tag (TEV-cleavable) (cleaved yes); made in house; host or cells: Sf9 insect cells
Test: Met Bioassay (luminescence-based enzyme assay, Kinase-Glo)
Assay type: biochemical
Settings: 10 μM ATP
Description: In addition to the c-Abl PK/LDH coupled assay (above), homogeneous luminescence-based inhibitor screening assays were developed for c-Abl, MET, AurA, and PDK1 kinases (among others). Each of these assays made use of an ATP depletion assay (Kinase-Glo™, Promega Corporation, Madison, Wis.) to quantitate kinase activity. The Kinase-Glo™ format uses a thermostable luciferase to generate luminescent signal from ATP remaining in solution following the kinase reaction. The luminescent signal is inversely correlated with the amount of kinase activity.
Materials: Poly Glu-Tyr (4:1) substrate (Sigma Cat# P-0275), ATP (Sigma Cat#A-3377, FW=551), HEPES buffer, pH 7.5, Bovine serum albumin (BSA) (Roche 92423420), MgCl2, Staurosporine (Streptomyces sp. Sigma Cat#85660-1MG), white Costar 384-well flat-bottom plate (VWR Cat#29444-088). MET kinase (see below), Kinase-Glo™ (Promega Cat#V6712).
Stock Solutions: 10 mg/ml poly Glu-Tyr in water, stored at −20° C.; 100 mM HEPES buffer, pH 7.5 (5 ml 1M stock+45 ml miliQH2O); 10 mM ATP (5.51 mg/ml in dH2O) stored at −20° C. (diluted 50 μl into total of 10 ml miliQH2O daily=50 μM ATP working stock); 1% BSA (1 g BSA in 100 ml 0.1M HEPES, pH 7.5, stored at −20° C.), 100 mM MgCl2; 200 μM Staurosporine, 2× Kinase-Glo™ reagent (made fresh or stored at −20° C.).
Standard Assay Setup for 384-well format (20 μl kinase reaction, 40 μl detection reaction): 10 mM MgCl2; 0.3 mg/ml poly Glu-Tyr; 0.1% BSA; 1 μl test compound (in DMSO); 0.4 μg/ml MET kinase; 10 μM ATP; 100 mM HEPES buffer. Positive controls contained DMSO with no test compound. Negative controls contained 10 μM staurosporine. The kinase reactions were initiated at time t=0 by the addition of ATP. Kinase reactions were incubated at 21° C. for 60 min, then 20 μl of Kinase-Glo™ reagent were added to each well to quench the kinase reaction and initiate the luminescence reaction. After a 20 min incubation at 21° C., the luminescence was detected in a plate-reading luminometer.
The cell pellets produced from half of a 12 L Sf9 insect cell culture expressing the kinase domain of human Met were resuspended in a buffer containing 50 mM Tris-HCl pH 7.7 and 250 mM NaCl, in a volume of approximately 40 ml per 1 L of original culture. One tablet of Roche Complete, EDTA-free protease inhibitor cocktail (Cat# 1873580) was added per 1 L of original culture. The suspension was stirred for 1 hour at 4° C. Debris was removed by centrifugation for 30 minutes at 39,800×g at 4° C. The supernatant was decanted into a 500 ml beaker and 10 ml of 50% slurry of Qiagen Ni-NTA Agarose (Cat# 30250) that had been pre-equilibrated in 50 mM Tris-HCl pH 7.8, 50 mM NaCl, 10% Glycerol, 10 mM Imidazole, and 10 mM Methionine, were added and stirred for 30 minutes at 4° C. The sample was then poured into a drip column at 4° C. and washed with 10 column volumes of 50 mM Tris-HCl pH 7.8, 500 mM NaCl, 10% Glycerol, 10 mM Imidazole, and 10 mM Methionine. The protein was eluted using a step gradient with two column volumes each of the same buffer containing 50 mM, 200 mM, and 500 mM Imidazole, sequentially. The 6× Histidine tag was cleaved overnight using 40 units of TEV protease (Invitrogen Cat#10127017) per 1 mg of protein while dialyzing in 50 mM Tris-HCl pH 7.8, 500 mM NaCl, 10% Glycerol, 10 mM Imidazole, and 10 mM Methionine at 4° C. The 6× Histidine tag was removed by passing the sample over a Pharmacia 5 ml IMAC column (Cat# 17-0409-01) charged with Nickel and equilibrated in 50 mM Tris-HCl pH 7.8, 500 mM NaCl, 10% Glycerol, 10 mM Imidazole, and 10 mM Methionine. The cleaved protein bound to the Nickel column at a low affinity and was eluted with a step gradient. The step gradient was run with 15% and then 80% of the B-side (A-side=50 mM Tris-HCl pH 7.8, 500 mM NaCl, 10% Glycerol, 10 mM Imidazole, and 10 mM Methionine; B-side=50 mM Tris-HCl pH 7.8, 500 mM NaCl, 10% Glycerol, 500 mM Imidazole, and 10 mM Methionine) for 4 column volumes each. […]

T1 sequence (P08581 1078-1345 limits assumed): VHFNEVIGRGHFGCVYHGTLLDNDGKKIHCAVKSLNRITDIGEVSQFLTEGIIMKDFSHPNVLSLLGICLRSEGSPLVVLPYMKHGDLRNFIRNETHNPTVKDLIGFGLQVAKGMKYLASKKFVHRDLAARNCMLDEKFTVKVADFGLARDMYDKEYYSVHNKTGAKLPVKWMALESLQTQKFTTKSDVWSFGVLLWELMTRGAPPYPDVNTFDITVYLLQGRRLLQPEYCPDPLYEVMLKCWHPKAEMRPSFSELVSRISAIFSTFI

IC50 [nM]	Compound
< 1000	COc1ccccc1-c1c[nH]c2ncc(-c3ccc(CN(C)C)cc3)cc12 [AE8]
< 1000	O=C(c1cncc(-c2cnc3[nH]cc(-c4ccc5cc[nH]c5c4)c3c2)c1)N1CCOCC1 [AE14]
1000 to 5000	c1cc2cc(-c3c[nH]c4ncc(-c5ccc6[nH]cnc6c5)cc34)ccc2[nH]1 [AE22]
1000 to 5000	COc1ccccc1-c1c[nH]c2ncc(-c3ccc(O)c(CN4CCCN(C)CC4)c3)cc12 [AE41]
< 1000	COc1ccccc1-c1c[nH]c2ncc(-c3cccc(C(=N)N4CCCCC4)c3)cc12 [AE42]
< 1000	Oc1cccc(-c2cnc3[nH]cc(-c4ccc(O)c(F)c4)c3c2)c1 [AE48]
1000 to 5000	COc1cc(-c2cnc3[nH]cc(-c4ccc(O)cc4)c3c2)ccc1O [AE58]
1000 to 5000	COc1cc(-c2cnc3[nH]cc(-c4ccccc4OC)c3c2)ccc1OCCN1CCCC1 [AE65]
